Laboratory results: patent publication US20190345138A1, “HETEROCYCLIC AMIDES AS KINASE INHIBITORS” (GlaxoSmithKline Intellectual Property Development Limited, priority 2016, published 2019)
Several values for one entry are separate records, joined by “and”; a condition that tells them apart may be missing. Equal entries are not always repeated.

Legend:
RIP1 kinase = target: T1, RIP1 kinase (Homo sapiens, UniProt Q13546); assay: fluorescent polarization based binding assay; settings: mean of a minimum of 2 experiments
T1 sequence (Q13546 1-375 limits assumed): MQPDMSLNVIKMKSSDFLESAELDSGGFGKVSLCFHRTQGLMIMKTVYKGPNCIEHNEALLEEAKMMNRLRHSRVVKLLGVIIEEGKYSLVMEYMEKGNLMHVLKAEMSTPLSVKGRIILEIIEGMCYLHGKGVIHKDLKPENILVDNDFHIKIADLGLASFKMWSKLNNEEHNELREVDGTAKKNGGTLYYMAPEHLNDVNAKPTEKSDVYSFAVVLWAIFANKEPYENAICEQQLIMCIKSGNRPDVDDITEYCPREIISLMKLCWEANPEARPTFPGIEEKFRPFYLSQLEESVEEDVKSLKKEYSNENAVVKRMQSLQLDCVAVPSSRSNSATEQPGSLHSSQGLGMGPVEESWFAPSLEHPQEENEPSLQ
Excerpt: A fluorescent polarization based binding assay was used to assess the activity of the compounds of this invention, the details of which are disclosed in International Patent Appln. No. PCT/IB2014/059004, now, International Patent Appln. Pub.

[1] = tested on: human monocytic leukemia U937 cells; assay: necroptosis assay in U937 cells; assay type: cell-based; settings: Homo sapiens, U-937, U937 cells; viability by cellular ATP (Cell Titer-Glo); read-out: pIC50, inhibited necrosis in U937 cells (converted)
Method in brief: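 Necroptosis was induced in human U937 or mouse L929 cells, and viability was quantified as cellular ATP with Cell Titer-Glo. Data are means±standard deviation.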

SMILES	IC50 (RIP1 kinase)	IC50 [1]
CSc1cc(N2CCC(C(=O)N3N=CC[C@H]3c3ccccc3)CC2)ncn1 [Example 59, (S)-(1-(6-(methylthio)pyrimidin-4-yl)piperidin-4-yl)(5-phenyl-4,5-dihydro-1H-pyrazol-1-yl)methanone]	1 to 31.6 nM and 1 to 10 nM	1 to 100 nM
CCOC(=O)c1coc(N2CCC(C(=O)N3N=CC[C@H]3c3cc(F)cc(F)c3)CC2)n1 [Example 106, (S)-ethyl 2-(4-(5-(3,5-difluorophenyl)-4,5-dihydro-1H-pyrazole-1-carbonyl)piperidin-1-yl)oxazole-4-carboxylate]	1 to 31.6 nM and 1 to 10 nM	1 to 100 nM
N#Cc1cccc([C@@H]2CC=NN2C(=O)C2CCN(c3ccnc(C#N)n3)CC2)c1 [Example 74, (S)-4-(4-(5-(3-cyanophenyl)-4,5-dihydro-1H-pyrazole-1-carbonyl)piperidin-1-yl)pyrimidine-2-carbonitrile]	1 to 31.6 nM	1 to 100 nM
N#Cc1cnc(N2CCC(C(=O)N3N=CC[C@H]3c3cc(F)ccc3F)CC2)cn1 [Example 103, (S)-5-(4-(5-(2,5-difluorophenyl)-4,5-dihydro-1H-pyrazole-1-carbonyl)piperidin-1-yl)pyrazine-2-carbonitrile]	1 to 31.6 nM and 1 to 10 nM	1 to 100 nM
N#Cc1cnc(N2CCC(C(=O)N3N=CC[C@H]3c3cc(F)cc(F)c3)CC2)nc1 [Example 92, (S)-2-(4-(5-(3,5-difluorophenyl)-4,5-dihydro-1H-pyrazole-1-carbonyl)piperidin-1-yl)pyrimidine-5-carbonitrile]	1 to 31.6 nM and 1 to 10 nM	1 to 100 nM
N#Cc1ccc(N2CCC(C(=O)N3N=CC[C@H]3c3ccccc3)CC2)nn1 [Example 42, (S)-6-(4-(5-phenyl-4,5-dihydro-1H-pyrazole-1-carbonyl)piperidin-1-yl)pyridazine-3-carbonitrile]	1 to 31.6 nM	1 to 100 nM
O=C(C1CCN(c2nccc(CO)n2)CC1)N1N=CC[C@H]1c1ccccc1 [Example 130, (S)-(1-(4-(hydroxymethyl)pyrimidin-2-yl)piperidin-4-yl)(5-phenyl-4,5-dihydro-1H-pyrazol-1-yl)methanone]	1 to 31.6 nM	1 to 100 nM
N#Cc1nccnc1N1CCC(C(=O)N2N=CC[C@H]2c2ccccc2)CC1 [Example 44, (S)-3-(4-(5-phenyl-4,5-dihydro-1H-pyrazole-1-carbonyl)piperidin-1-yl)pyrazine-2-carbonitrile]	1 to 31.6 nM and 1 to 10 nM	1 to 100 nM
N#Cc1cnc(N2CCC(C(=O)N3N=CC[C@H]3c3ccccc3)CC2)o1 [Example 138, (S)-2-(4-(5-phenyl-4,5-dihydro-1H-pyrazole-1-carbonyl)piperidin-1-yl)oxazole-5-carbonitrile]	1 to 31.6 nM and 1 to 10 nM	1 to 100 nM
NC(=O)c1cnc(N2CCC(C(=O)N3N=CC[C@H]3c3cc(F)ccc3F)CC2)nc1 [Example 123, (S)-2-(4-(5-(2,5-difluorophenyl)-4,5-dihydro-1H-pyrazole-1-carbonyl)piperidin-1-yl)pyrimidine-5-carboxamide]	1 to 31.6 nM	1 to 100 nM
N#Cc1cccc([C@@H]2CC=NN2C(=O)C2CCN(c3cc(C(N)=O)ncn3)CC2)c1 [Example 70, (S)-6-(4-(5-(3-cyanophenyl)-4,5-dihydro-1H-pyrazole-1-carbonyl)piperidin-1-yl)pyrimidine-4-carboxamide]	1 to 31.6 nM	1 to 100 nM
O=C(c1ccnc(N2CCC(C(=O)N3N=CC[C@H]3c3ccccc3)CC2)n1)N1CCOCC1 [Example 145, (S)-(1-(4-(morpholine-4-carbonyl)pyrimidin-2-yl)piperidin-4-yl)(5-phenyl-4,5-dihydro-1H-pyrazol-1-yl)methanone]	1 to 31.6 nM	1 to 100 nM
COc1cc(N2CCC(C(=O)N3N=CC[C@H]3c3cc(F)ccc3F)CC2)ncn1 [Example 105, (S)-(5-(2,5-difluorophenyl)-4,5-dihydro-1H-pyrazol-1-yl)(1-(6-methoxypyrimidin-4-yl)piperidin-4-yl)methanone]	1 to 31.6 nM and 1 to 10 nM	1 to 100 nM
COc1cnc(N2CCC(C(=O)N3N=CC[C@H]3c3ccccc3)CC2)nc1 [Example 13, (S)-(1-(5-methoxypyrimidin-2-yl)piperidin-4-yl)(5-phenyl-4,5-dihydro-1H-pyrazol-1-yl)methanone]	1 to 31.6 nM and 1 to 10 nM	1 to 100 nM
N#Cc1cccc([C@@H]2CC=NN2C(=O)C2CCN(c3ncc4cn[nH]c4n3)CC2)c1 [Example 76, (S)-3-(1-(1-(1H-pyrazolo[3,4-d]pyrimidin-6-yl)piperidine-4-carbonyl)-4,5-dihydro-1H-pyrazol-5-yl)benzonitrile]	1 to 31.6 nM	1 to 100 nM
Nc1cc(N2CCC(C(=O)N3N=CC[C@H]3c3cc(F)cc(F)c3)CC2)ncn1 [Example 98, (S)-(1-(6-aminopyrimidin-4-yl)piperidin-4-yl)(5-(3,5-difluorophenyl)-4,5-dihydro-1H-pyrazol-1-yl)methanone]	1 to 31.6 nM and 1 to 10 nM	1 to 100 nM
Nc1ccnc(N2CCC(C(=O)N3N=CC[C@H]3c3cc(F)cc(F)c3)CC2)n1 [Example 93, (S)-(1-(4-aminopyrimidin-2-yl)piperidin-4-yl)(5-(3,5-difluorophenyl)-4,5-dihydro-1H-pyrazol-1-yl)methanone]	1 to 31.6 nM	1 to 100 nM
O=C(C1CCN(c2nccc(C3=NCCN3)n2)CC1)N1N=CC[C@H]1c1ccccc1 [Example 140, (S)-(1-(4-(4,5-dihydro-1H-imidazol-2-yl)pyrimidin-2-yl)piperidin-4-yl)(5-phenyl-4,5-dihydro-1H-pyrazol-1-yl)methanone]	1 to 31.6 nM and 1 to 10 nM	1 to 100 nM
COc1cc(N2CCC(C(=O)N3N=CC[C@H]3c3ccccc3)CC2)ncn1 [Example 12, (S)-(1-(6-methoxypyrimidin-4-yl)piperidin-4-yl)(5-phenyl-4,5-dihydro-1H-pyrazol-1-yl)methanone]	1 to 31.6 nM and 1 to 10 nM	1 to 100 nM
O=C(C1CCN(c2nccc(=O)[nH]2)CC1)N1N=CC[C@H]1c1ccccc1 [Example 19, (S)-2-(4-(5-phenyl-4,5-dihydro-1H-pyrazole-1-carbonyl)piperidin-1-yl)pyrimidin-4(3H)-one]	1 to 31.6 nM	1 to 100 nM
O=C(C1CCN(c2ncc3[nH]cnc3n2)CC1)N1N=CC[C@H]1c1ccccc1 [Example 9, (S)-(1-(7H-purin-2-yl)piperidin-4-yl)(5-phenyl-4,5-dihydro-1H-pyrazol-1-yl)methanone]	1 to 31.6 nM	1 to 100 nM
NC(=O)c1csc(N2CCC(C(=O)N3N=CC[C@H]3c3ccccc3)CC2)n1 [Example 56, (S)-2-(4-(5-phenyl-4,5-dihydro-1H-pyrazole-1-carbonyl)piperidin-1-yl)thiazole-4-carboxamide]	1 to 31.6 nM	1 to 100 nM
O=C(C1CCN(c2nccc(=O)[nH]2)CC1)N1N=CC[C@H]1c1cc(F)cc(F)c1 [Example 97, (S)-2-(4-(5-(3,5-difluorophenyl)-4,5-dihydro-1H-pyrazole-1-carbonyl)piperidin-1-yl)pyrimidin-4(3H)-one]	1 to 31.6 nM	1 to 100 nM
COc1cc(N2CCC(C(=O)N3N=CC[C@H]3c3cc(F)cc(F)c3)CC2)ncn1 [Example 91, (S)-(5-(3,5-difluorophenyl)-4,5-dihydro-1H-pyrazol-1-yl)(1-(6-methoxypyrimidin-4-yl)piperidin-4-yl)methanone]	1 to 31.6 nM and 1 to 10 nM	1 to 100 nM
N#Cc1cncnc1N1CCC(C(=O)N2N=CC[C@H]2c2ccccc2)CC1 [Example 50, (S)-4-(4-(5-phenyl-4,5-dihydro-1H-pyrazole-1-carbonyl)piperidin-1-yl)pyrimidine-5-carbonitrile]	1 to 31.6 nM and 1 to 10 nM	1 to 100 nM
CCN(CC)C(=O)c1ccnc(N2CCC(C(=O)N3N=CC[C@H]3c3ccccc3)CC2)n1 [Example 142, (S)-N,N-diethyl-2-(4-(5-phenyl-4,5-dihydro-1H-pyrazole-1-carbonyl)piperidin-1-yl)pyrimidine-4-carboxamide]	1 to 31.6 nM and 1 to 10 nM	1 to 100 nM
O=C(C1CCN(c2ncc(-c3ccccc3)o2)CC1)N1N=CC[C@H]1c1ccccc1 [Example 67, (S)-(5-phenyl-4,5-dihydro-1H-pyrazol-1-yl)(1-(5-phenyloxazol-2-yl)piperidin-4-yl)methanone]	1 to 31.6 nM	1 to 100 nM
N#Cc1cccc([C@@H]2CC=NN2C(=O)C2CCN(c3ccc4nccn4n3)CC2)c1 [Example 73, (S)-3-(1-(1-(imidazo[1,2-b]pyridazin-6-yl)piperidine-4-carbonyl)-4,5-dihydro-1H-pyrazol-5-yl)benzonitrile]	1 to 31.6 nM	1 to 100 nM
COc1cncc(N2CCC(C(=O)N3N=CC[C@H]3c3ccccc3)CC2)n1 [Example 48, (S)-(1-(6-methoxypyrazin-2-yl)piperidin-4-yl)(5-phenyl-4,5-dihydro-1H-pyrazol-1-yl)methanone]	1 to 31.6 nM	1 to 100 nM
O=C1NCCC1c1nc(N2CCC(C(=O)N3N=CC[C@H]3c3ccccc3)CC2)ncc1F (stereo partly drawn) [Example 150, 3-(5-fluoro-2-(4-((S)-5-phenyl-4,5-dihydro-1H-pyrazole-1-carbonyl)piperidin-1-yl)pyrimidin-4-yl)pyrrolidin-2-one]	1 to 31.6 nM and 1 to 10 nM	1 to 100 nM
